In brackets after ≈: the same amount, converted by molar mass. Like-named read-outs stand apart in the source and are kept apart here.
Columns and labels:
[1] = Solubility of inclusion compound in water; type: physicochemical
Protocol: The lankacidin-group is added to each of solutions containing various amounts of cyclodextrin. The minimum concentration of cyclodextrin which dissolves the maximum amount of the lankacidin-group compound and practical concentrations thereof are determined on the basis of amounts of the lankacidin-group compound dissolved in the cyclodextrin solutions. Then, the molar ratio of cyclodextrin to lankacidin-group compound is calculated by the following equation:
Molar ratio=[Molarity of cyclodextrin]:[(Saturation molarity of lankacidin-group compound in a certain concentration of cyclodextrin-solution)-(saturation molarity of lankacidin-group compound in an aqueous solution)].
Moreover, a large amount of the present inclusion compound is dissolved in water and it is kept stably therein. Solubility of the inclusion compound in water is greater than that of landacidin-group compounds in water, when the amount of the inclusion compound dissolved is calculated in terms of lankacidin-group compound, and than saturation concentration of cyclodextrin in water so far as cyclodextrin contained in the inclusion compound is concerned (Table 2).
(1) Solubility of lankacidingroup in water.
(2) Solubility of lankacidingroup in M/100 cyclodextrin solution.
(3) Concentration of cyclodextrin of (2).
(4) Solubility (maximum) of the present inclusion compound (calculated in
terms of lankacidingroup contained) in water.
(5) Concentration of cyclodextrin contained in the inclusion compound of […]

[2] = Stability of lankacidin A and C in methanolic aqueous solutions, 40° C., HPLC (Example 7); type: physicochemical; conditions: for Residual rate / remaining at 4 h / remaining at 6 h: 10 μg/ml, 40° C.; for Residual rate: 0 hr; for remaining at 4 h / remaining at 6 h: read-out: Residual rate
Protocol: 5 ml each of a methanolic solution containing lankacidin A or C in a concentration of 100 μg per ml was added to 45 ml each of pH 4.5 and pH 7.0 buffer solutions and a buffer solution containing β-cyclodextrin.
Each mixture was placed in a glass vessel, and then sealed. While the mixtures were kept in the vessel at 40° C., 5 ml each was taken out from time to time and extracted with ethyl acetate. The organic layers were dried over anhydrous sodium sulfate and the concentrations of the lankacidin A or C was measured with high-performance liquid chromatography (HPLC).
Apparatus: Water Associates ALC/GPC 240 (Waters Associates Inc., U.S.A.)
Column: μPoracil 30 cm×3.9 mm.phi.
Eluent: n-Hexane: isopropyl alcohol: acetic acid (75:25:0.2).

[3] = Solubility in β-CD solution, shaken 16 hours (Example 3); type: physicochemical
Protocol: Powdery lankacidin C was added to an aqueous solution of cyclodextrin (hereinafter referred to as "CD") to have 4 mg/ml of the lankacidin C contained. After the mixture was stirred with a mixer, it was shaken at 5° C. for 2 hours, and passed through filter paper. The absorbancy of the filtrate was measured at 227-229 nm to determine concentration of the lankacidin C.
The solubilities of lankacidin A, lankacidin C and lankacidinol in a β-CD solution were measured in the same manner as that of Example 1 except that the shaking was continued for 16 hours.

St. aureus 209P = experiment: Stability of inclusion compound of lankacidin-group (24° C., for 6 days): antibacterial activity by paper disk assay; type: cell-based; conditions: methanol, 1000 μg/ml
Protocol: The inclusion compound of the present invention is stable in an aqueous solution, although it splits into lankacidin-group moiety and cyclodextrins moiety, when it is in the form of solution or powder, by contacting it with organic solvents (e.g., ethyl acetate, methyl isobutyl ketone) or various carriers (e.g., silica gel, high-porous resins). […] In comparing the antibacterial activity, concentrations of the inclusion compound are calculated in terms of lankacidin-group compound from which the inclusion compound is prepared.
Stability of inclusion compound of lankacidin-group
*1 Paper disk assay using Trypticase soy agar (Baltimore Biologicals Ltd.
U.S.A.) as test culture media.
*2 1000 μg/ml, Lankacidingroup is stable in methanol.
*3 Aqueous solution of the inclusion compound with cyclodextrin (1000
μg/ml calculated in terms of lankacidingroup)

[4] = Solubility / suspension in physiological saline for injection (Test Example); type: physicochemical
Protocol: 10 mg (titer) calculated in terms of lankacidin A is soluble in 1 ml each of physiological saline solution. As a control, lankacidin A itself used in Example 5 was employed.
5.2 ml (titer: 10 mg/kg) of this suspension was administered to pig No. 1 and 4.9 ml (titer: 7 mg/kg) was administered to pig No. 2 by injecting it into root portion of ear once a day for two days.
Thus, administration was impossible.

[5] = methanolic buffer with β-cyclodextrin, pH 4.5, β-cyclodextrin 10 mg/ml
[6] = methanolic buffer with β-cyclodextrin, pH 7.0, β-cyclodextrin 10 mg/ml

In the case of `CC(=O)OC1C=CC(C)=CCC(O)C=CC(C)=CC(NC(=O)C(C)=O)C2(C)C(=O)OC(C1)C(C)C2=O` (centres unmarked) [Lankacidin A, lankacidin A], the solubility ([1]; m/100 cyclodextrin solution, M/100 cyclodextrin, (3) cyclodextrin 11.3 mg/ml, read-out: (2) Solubility of lankacidin-group in M/100 cyclodextrin solution) is reported as 2690 µg/mL (≈ 5360 µM), the solubility ([1]; water, read-out: (1) Solubility of lankacidin-group in water) is reported as 181 µg/mL (≈ 361 µM) and the Residual rate ([2]; pH 4.5, no β-cyclodextrin) is reported as 100%. It also gave a Residual rate ([2]; pH 4.5, β-cyclodextrin 10 mg/ml) of 100%, a Residual rate ([2]; pH 7.0, no β-cyclodextrin) of 100% and a Residual rate ([2]; pH 7.0, β-cyclodextrin 10 mg/ml) of 100%. For the same molecule, the “Effect of β-cyclodextrin on stability in methanolic aqueous solutions” value ([2]; 1000 times β-CD by weight added) was “increased stabilities”, the remaining at 4 h ([2]; methanolic aqueous buffer, pH 4.5, no β-cyclodextrin) was 34.5% and the remaining at 4 h ([2]; methanolic aqueous buffer, pH 7.0, no β-cyclodextrin) was 17.4%. The remaining at 4 h [2, 5] was 91.9%, the remaining at 6 h [2, 5] was 85.7% and the remaining at 4 h [2, 6] was 58.3%. The remaining at 6 h [2, 6] was 48.1%, the solubility at 16 h ([3]; aqueous β-cd solution, β-CD 2 × 10^-3 Mol/l) was 632 µg/mL (≈ 1260 µM) and the solubility at 16 h ([3]; aqueous β-cd solution, β-CD 2 × 10^-4 Mol/l) was 201 µg/mL (≈ 401 µM). For the same molecule, the solubility at 16 h ([3]; aqueous β-cd solution, β-CD 5 × 10^-3 Mol/l) was 1370 µg/mL (≈ 2730 µM), the solubility at 16 h ([3]; aqueous β-cd solution, β-CD 5 × 10^-4 Mol/l) was 265 µg/mL (≈ 528 µM) and the solubility at 16 h ([3]; aqueous β-cd solution, β-CD 10^-2 Mol/l) was 2690 µg/mL (≈ 5360 µM). The solubility at 16 h ([3]; aqueous β-cd solution, β-CD 10^-3 Mol/l) was 400 µg/mL (≈ 797 µM), the solubility at 16 h ([3]; aqueous β-cd solution, β-CD 10^-4 Mol/l) was 195 µg/mL (≈ 389 µM) and the “Solubility in β-CD solution as function of β-CD concentration” value ([3]; from the vicinity of 10^-3 Mol/l of β-CD) was “increase in proportion to the concentration of β-CD”. For the same molecule, the solubility at 16 h ([3]; water, β-CD 0 Mol/l) was 181 µg/mL (≈ 361 µM), the “Antibacterial activity, inhibition diameter” value (St. aureus 209P; 0 day) was 26.75 mm and the “Antibacterial activity, inhibition diameter” value (St. aureus 209P; 3 days at 24° C.) was 27.0 mm. The “Antibacterial activity, inhibition diameter” value (St. aureus 209P; 6 days at 24° C.) was 23.25 mm and the “Preparation of injection/suspension in sterilized physiological saline solution” value [4] was “suspension could not be obtained due to separation of the drug”.

From US4497803A, “Inclusion compound of lankacidin-group antibiotic and use thereof” (priority 1982, dated 1985)
